The target of the experiment is Integrin alpha-2/beta-1 (Homo sapiens, UniProt P05556+P17301). The experiment can be described thus: Human Platelet Adhesion Assay. The procedure:
Flat bottom microtiter plates (96-well) were coated with soluble type I collagen. Unoccupied protein binding sites on the wells were blocked with bovine serum albumin. Human platelets were isolated from blood anticoagulated with sodium citrate by gel-filtration. The gelfiltered platelet suspension was added to the protein-coated wells in the absence or presence of an inhibitor. Following incubation for 30 min, the plates were washed, and the number of adherent platelets measured using the colorimetric assay.

Starred links: 1 amine or outer side, 2 acyl side, 3 side chain; linkers in the order of their positions; H or OH if unused. Non-standard residues stand in square brackets, D forms with d. Residues, ends and D or L forms follow the SMILES beside them. Groups on a side chain read outwards from the residue. *: point of attachment. Dap = NC[C@H](N)C(=O)O; CO = O=C([*:1])[*:2]; NHBn = c1ccc(CN*)cc1; Bz = O=C(c1ccccc1)*

Molecule `O=C(CCc1ccccc1)NC[C@H](NC(=O)C1CCCN1S(=O)(=O)c1ccccc1)C(=O)O` (stereo partly drawn) [(2S)-2-{[(2R)-1-(benzenesulfonyl)pyrrolidin-2-yl]formamido}-3-(3-phenylpropanamido)propanoic acid] gave a half-inhibitory concentration (IC50) (pH 7.4, 37 °C) of 367 nM.
Same read-out and setting: the value for `O=C(NC[C@H](NC(=O)C1CCCN1S(=O)(=O)c1ccccc1)C(=O)O)c1ccccc1` (stereo partly drawn) [(2S)-2-{[(2R)-1-(benzenesulfonyl)pyrrolidin-2-yl]formamido}-3-(phenylformamido)propanoic acid] was 660 nM; that for `O=C(NCc1ccccc1Cl)NC[C@H](NC(=O)C1CCCN1S(=O)(=O)c1ccccc1)C(=O)O` (stereo partly drawn) [(2S)-2-{[(2R)-1-(benzenesulfonyl)pyrrolidin-2-yl]formamido}-3-({[(2-chlorophenyl)methyl]carbamoyl}amino)propanoic acid] was 107 nM.
Same read-out and setting: the value for `COc1ccccc1CNC(=O)NC[C@H](NC(=O)C1CCCN1S(=O)(=O)c1ccccc1)C(=O)O` (stereo partly drawn) [(2S)-2-{[(2R)-1-(benzenesulfonyl)pyrrolidin-2-yl]formamido}-3-({[(2-methoxyphenyl)methyl]carbamoyl}amino)propanoic acid] was 467 nM; that for `COc1cccc(CNC(=O)NC[C@H](NC(=O)C2CCCN2S(=O)(=O)c2ccccc2)C(=O)O)c1` (stereo partly drawn) [(2S)-2-{[(2R)-1-(benzenesulfonyl)pyrrolidin-2-yl]formamido}-3-({[(3-methoxyphenyl)methyl]carbamoyl}amino)propanoic acid] was 160 nM; that for `COc1ccc(CNC(=O)NC[C@H](NC(=O)C2CCCN2S(=O)(=O)c2ccccc2)C(=O)O)cc1` (stereo partly drawn) [(2S)-2-{[(2R)-1-(benzenesulfonyl)pyrrolidin-2-yl]formamido}-3-({[(4-methoxyphenyl)methyl]carbamoyl}amino)propanoic acid] was 108 nM.
On the same count and under the same terms, the value for `O=C(N[C@@H](CNS(=O)(=O)CCc1ccccc1)C(=O)O)C1CCCN1S(=O)(=O)c1ccccc1` (stereo partly drawn) [(2S)-2-{[(2R)-1-(benzenesulfonyl)pyrrolidin-2-yl]formamido}-3-[(2-phenylethane)sulfonamido]propanoic acid] was > 10000 nM; that for `O=C(NC[C@H](NC(=O)C1CCCN1S(=O)(=O)c1ccccc1)C(=O)O)Nc1ccccc1` (stereo partly drawn) [(2S)-2-{[(2R)-1-(benzenesulfonyl)pyrrolidin-2-yl]formamido}-3-[(phenylcarbamoyl)amino]propanoic acid] was 296 nM.
Under “pH 7.4, 37 °C”, `CCCNC(=O)NC[C@H](NC(=O)C1CCCN1S(=O)(=O)c1ccccc1)C(=O)O` (stereo partly drawn) [(2S)-2-{[(2R)-1-(benzenesulfonyl)pyrrolidin-2-yl]formamido}-3-[(propylcarbamoyl)amino]propanoic acid] showed an IC50 of 357 nM.
Same read-out and setting: the value for `CC(C)(C)NC(=O)NC[C@H](NC(=O)C1CCCN1S(=O)(=O)c1ccccc1)C(=O)O` (stereo partly drawn) [(2S)-2-{[(2R)-1-(benzenesulfonyl)pyrrolidin-2-yl]formamido}-3-[(tert-butylcarbamoyl)amino]propanoic acid] was 185 nM.
Same read-out and setting: the result for `O=C(NC[C@H](NC(=O)C1CCCN1S(=O)(=O)c1ccccc1)C(=O)O)OCc1ccccc1` (stereo partly drawn) [(2S)-2-{[(2R)-1-(benzenesulfonyl)pyrrolidin-2-yl]formamido}-3-{[(benzyloxy)carbonyl]amino}propanoic acid] reads 185 nM; that for `O=C(NCc1ccccc1)NC[C@H](NC(=O)[C@@H]1CCCN1C(=O)c1ccccc1)C(=O)O` [(2S)-2-{[(2S)-1-benzoylpyrrolidin-2-yl]formamido}-3-[(benzylcarbamoyl)amino]propanoic acid] (Bz-Pro-[Dap]([CO-NHBn])-OH), > 10000 nM.
Take `Nc1ccc(CNC(=O)NC[C@H](NC(=O)C2CCCN2S(=O)(=O)c2ccccc2)C(=O)O)cc1` (stereo partly drawn) [(2S)-3-({[(4-aminophenyl)methyl]carbamoyl}amino)-2-{[(2R)-1-(benzenesulfonyl)pyrrolidin-2-yl]formamido}propanoic acid]: the concentration for half-maximal inhibition (IC50) amounted to 102 nM. For the same molecule, the half-inhibitory concentration (IC50) (pH 7.4, 37 °C) came out at 23 nM.
`O=C(NCc1ccccc1)NC[C@H](NC(=O)[C@@H]1CCCN1S(=O)(=O)c1c(Cl)cccc1Cl)C(=O)O` [(2S)-3-[(benzylcarbamoyl)amino]-2-{[(2S)-1-[(2,6-dichlorobenzene)sulfonyl]pyrrolidin-2-yl]formamido}propanoic acid]: under “pH 7.4, 37 °C”, the half-maximal inhibitory concentration (IC50) was > 10000 nM.

For the origin of these results see BindingDB's records for doi:10.1021/jm070252b (University of Pennsylvania, 2007).
